Data on four compounds can be found in ChEMBL document CHEMBL2311324, “Inhibitors of HIV-1 attachment. Part 10. The discovery and structure-activity relationships of 4-azaindole cores” (Bioorg Med Chem Lett, 2013).

Bounds are passed on as bounds.

The test system of data set [1] is Rattus norvegicus. The data set is described as follows: Oral bioavailability in rat at 5 mg/kg. It counts as ADME, organism-based. The conditions noted are these: in vivo.
Data set [2] concerns Rattus norvegicus. The data set is described as follows: (§1) AUC in rat at 5 mg/kg, po. It counts as ADME, organism-based, Plasma. On the set-up: dose 5 mg/kg, route oral. Particulars: in vivo.
The nature of data set [3]: Cytotoxicity against human HeLa cells expressing CD4, CCR5 after 3 days. It counts as cell-based. Particulars: HeLa cells expressing CD4 and CCR5.
The subject of data set [4] is Human immunodeficiency virus 1. The data set is described as follows: Antiviral activity against HIV1 JR-FL in human HeLa cells expressing CD4, CCR5 assessed as inhibition of integration of viral DNA into cell genome after 3 days by luciferase reporter gene assay. Format: functional, organism-based. Particulars: Human immunodeficiency virus 1, JR-FL, 72 h.
Data set [5] is described as follows: as §1. It counts as ADME, organism-based, Plasma. Set-up: dose 5 mg/kg, route oral. Particulars: plasma.

In general, AUC refers to the area under the concentration-time curve, a measure of exposure. Broadly, the CC50 is the concentration at which the toxic effect on the cells reaches its halfway point. As usually defined, the EC50 is the concentration giving half of the maximal effect. For the compound `C[C@@H]1CN(C(=O)C(=O)c2c[nH]c3c(-c4ncco4)ccnc23)CCN1C(=O)c1ccccc1`, in data set [1], the F is recorded as 60%. Also, the AUC in data set [2] stood at 5.6 µM·h. This compound came in with a CC50 at 72 h in data set [3] of 135000 nM. The 50% effective concentration (EC50) in data set [4] was 0.34 nM.

Compound `COc1ccnc2[nH]cc(C(=O)C(=O)N3CCN(C(=O)c4ccccc4)C[C@H]3C)c12` returned an AUC in data set [5] of 1.3 µM·h. The same compound gave a half-maximal cytotoxic concentration (CC50) at 72 h in data set [3] greater than 300000 nM. In data set [4], the EC50 worked out at 1 nM.

With `C[C@@H]1CN(C(=O)C(=O)c2c[nH]c3c(-n4nccn4)ccnc23)CCN1C(=O)c1ccccc1`, the F in data set [1] is listed as 78%. Moreover, the exposure (AUC) in data set [2] stood at 3.3 µM·h. For the same compound, the midpoint of cytotoxicity in data set [3], the CC50 at 72 h, lay at 300000 nM. Moreover, the EC50 in data set [4] was determined as 0.44 nM.

In turn, `O=C(C(=O)N1CCN(C(=O)c2ccccc2)CC1)c1c[nH]c2c(-n3nccn3)ccnc12` had a F in data set [1] of 65%. In data set [2], the AUC was found to be 9.6 µM·h. Moreover, in data set [3], the CC50 at 72 h was greater than 300000 nM. Moreover, the EC50 in data set [4] turned out to be 0.32 nM.
